Reference: patent US8481732B2 (Incyte Corporation, priority 2009, dated 2013)

molecular target: T1, histamine H4 receptor (Homo sapiens, UniProt Q9H3N8); assay: H4 Membrane Binding Assay (3H-Histamine displacement); conditions: membranes of recombinant HEK293SFM cells, 10 nM 3H-Histamine, 1.5 hr at room temperature
T1 construct: expressed in transfected cells; host or cells: HEK293SFM cells (membrane preparation)
Description: Recombinant HEK293SFM cells expressing human H1, H2, H3, H4 or mouse H4 were harvested (Packard Filtermate Harvester) in ice-cold Tris-HCl, (50 mM, pH 7.5, Sigma) with protease inhibitors (Roche) and homogenized with a Polytron homogenizer. The homogenate was centrifuged for 5 minutes at 1000 g to remove nuclei and unbroken cells. The supernatant was centrifuged at 50000 g for 30 minutes, and the resulting pellet was re-suspended in ice-cold Tris-HCl (50 mM, pH 7.5). […] Nonspecific binding was determined by inclusion of 1000× unlabeled ligands. The bound radioactivity was separated by filtration through polyethyleneimine-treated GF/B filters (Perkin Elmer). The filters were washed eight times with ice-cold Tris-HCl (50 mM, pH 7.5), and radioactivity retained on the filters was measured by liquid scintillation counting. The binding data were evaluated with Prism.

IC50	SMILES
0.034 µM	CN1CCN(c2cc(-c3ccc4c(c3)CN(C(=O)CC3(C#N)CCC3)CC4)nc(N)n2)CC1 [Example 120, 1-{2-[7-[2-Amino-6-(4-methylpiperazin-1-yl)pyrimidin-4-yl]-3,4-dihydroisoquinolin-2(1)-yl]-2-oxoethyl}cyclobutanecarbonitrile]
0.042 µM	CC(C)Oc1ccc(C[C@@H](C#N)NC(=O)c2ccc3c(N4CCN(C)CC4)nc(N)nc3c2)cc1 [Example 137]
0.0196 µM	CN1CCN(c2cc(-c3ccc4c(c3)CN(C(=O)Nc3cccc(Cl)c3)CC4)nc(N)n2)CC1 [Example 20, 7-[2-Amino-6-(4-methylpiperazin-1-yl)pyrimidin-4-yl]-N-(3-chlorophenyl)-3,4-dihydroisoquinoline-2(1H)-carboxamide]
0.02 µM	COC(=O)c1ccccc1Oc1cccc(CNC(=O)c2ccc3c(N4CCN(C)CC4)nc(N)nc3c2)c1 [Example 191, Methyl 2-{3-[({[2-amino-4-(4-methylpiperazin-1-yl)quinazolin-7-yl]carbonyl}amino)methyl]phenoxy}benzoate]
0.139 µM	CN1CCN(c2nc(N)nc3cc(C(=O)NCC(=O)OCc4ccccc4)ccc23)CC1 [Example 132, Benzyl({[2-amino-4-(4-methylpiperazin-1-yl)quinazolin-7yl]carbonyl}amino)acetate]
0.063 µM	CN1CCN(c2cc(-c3ccc4c(c3)CN(C(=O)Nc3ccc(-c5ccccc5)cn3)CC4)nc(N)n2)CC1 [Example 91, 7-[2-Amino-6-(4-methylpiperazin-1-yl)pyrimidin-4-yl]-N-(5-phenylpyridin-2-yl)-3,4-dihydroisoquinoline-2(1H)-carboxamide]
0.361 µM	CN1CCN(c2cc(-c3ccc4c(c3)CN(C(=O)OC3CCN(C(=O)NC5CCCC5)CC3)CC4)nc(N)n2)CC1 [Example 70, 1-[(Cyclopentylamino)carbonyl]piperidin-4-yl 7-[2-amino-6-(4-methylpiperazin-1-yl)pyrimidin-4-yl]-3,4-dihydroisoquinoline-2(1H)-carboxylate]
0.057 µM	CCO[C@H]1CCCC[C@H]1NC(=O)N1CCc2ccc(-c3cc(N4CCN(C)CC4)nc(N)n3)cc2C1 (relative stereo) [Example 85, 7-[2-Amino-6-(4-methylpiperazin-1-yl)pyrimidin-4-yl]-N-[(cis)-2-ethoxycyclohexyl]-3,4-dihydroisoquinoline-2(1H)-carboxamide]
0.19 µM	CN1CCN(c2nc(N)nc3cc(C(=O)NC(Cc4nc5ccccc5s4)C(=O)N(C)C)ccc23)CC1 (stereo not drawn) [Example 144, 2-Amino-N-[1-(1,3-benzothiazol-2-ylmethyl)-2-(dimethylamino)-2-oxoethyl]-4-(4-methylpiperazin-1-yl)quinazoline-7-carboxamide]
0.0208 µM	CN1CCN(c2cc(-c3ccc4c(c3)CN(C(=O)NC3CCCC3)CC4)nc(N)n2)CC1 [Example 5, 7-[2-Amino-6-(4-methylpiperazin-1-yl)pyrimidin-4-yl]-N-cyclopentyl-3,4-dihydroisoquinoline-2(1H)-carboxamide]
0.896 µM	CN1CCN(c2nc(N)nc3cc(C(=O)Nc4cccc(Cl)c4)ccc23)CC1 [Example 27, 2-Amino-N-(3-chlorophenyl)-4-(4-methylpiperazin-1-yl)quinazoline-7-carboxamide]
0.023 µM	CN1CCN(c2nc(N)nc3cc(C(=O)NC(Cc4cccc(Oc5cccc(C#N)c5)c4)C(=O)N(C)C)ccc23)CC1 (stereo not drawn) [Example 174, 2-Amino-N-(3-(3-(3-cyanophenoxy)phenyl)-1-(dimethylamino)-1-oxopropan-2-yl)-4-(4-methylpiperazin-1-yl)quinazoline-7-carboxamide]
0.059 µM	CC(C)Oc1ccc(C[C@H](NC(=O)c2ccc3c(N4CCN(C)CC4)nc(N)nc3c2)C(=O)N(C)C)cc1 [Example 136, (S)-2-amino-N-(1-(dimethylamino)-3-(4-isopropoxyphenyl)-1-oxopropan-2-yl)-4-(4-methylpiperazin-1-yl)quinazoline-7-carboxamide]
0.178 µM	COC(=O)N1CCC(CC(=O)N2CCc3ccc(-c4cc(N5CCN(C)CC5)nc(N)n4)cc3C2)C1 (stereo not drawn) [Example 118, Methyl 3-{2-[7-[2-amino-6-(4-methylpiperazin-1-yl)pyrimidin-4-yl]-3,4-dihydroisoquinolin-2(1H)-yl]-2-oxoethyl}pyrrolidine-1-carboxylate]
0.198 µM	CN1CCN(c2cc(-c3ccc4c(c3)CNCC4)nc(N)n2)CC1 [Example 1, 4-(4-Methylpiperazin-1-yl)-6-(1,2,3,4-tetrahydroisoquinolin-7-yl)pyrimidin-2-amine]
0.109 µM	COC(=O)NC(CC(=O)N1CCc2ccc(-c3cc(N4CCN(C)CC4)nc(N)n3)cc2C1)C1CCCCC1 (stereo not drawn) [Example 114, Methyl{3-[7-[2-amino-6-(4-methylpiperazin-1-yl)pyrimidin-4-yl]-3,4-dihydroisoquinolin-2(1H)-yl]-1-cyclohexyl-3-oxopropyl}carbamate]
0.037 µM	CN1CCN(c2cc(-c3ccc4c(c3)CN(C(=O)NC3CCC(F)(F)CC3)CC4)nc(N)n2)CC1 [Example 63, 7-[2-Amino-6-(4-methylpiperazin-1-yl)pyrimidin-4-yl]-N-(4,4-difluorocyclohexyl)-3,4-dihydroisoquinoline-2(1H)-carboxamide]
0.384 µM	CN1CCN(c2nc(N)nc3cc(C(=O)NC(C)(C)c4ccccc4)ccc23)CC1 [Example 23, 2-Amino-N-(1-methyl-1-phenylethyl)-4-(4-methylpiperazin-1-yl)quinazoline-7-carboxamide]
0.0075 µM	COc1ccc(Oc2cccc(CNC(=O)c3ccc4c(N5CCN(C)CC5)nc(N)nc4c3)c2)cc1 [Example 178, 2-Amino-N-[3-(4-methoxyphenoxy)benzyl]-4-(4-methylpiperazin-1-yl)quinazoline-7-carboxamide]
0.0079 µM	CCOC(=O)c1cc(C)nc(Oc2cccc(CNC(=O)c3ccc4c(N5CCN(C)CC5)nc(N)nc4c3)c2)c1C#N [Example 186, Ethyl 2-{3-[({[2-amino-4-(4-methylpiperazin-1-yl)quinazolin-7-yl]carbonyl}amino)methyl]phenoxy}-3-cyano-6-methylisonicotinate]
0.267 µM	CN1CCN(c2cc(-c3ccc4c(c3)CN(S(=O)(=O)c3ccccc3)CC4)nc(N)n2)CC1 [Example 4, 4-(4-Methylpiperazin-1-yl)-6-[2-(phenylsulfonyl)-1,2,3,4-tetrahydroisoquinolin-7-yl]pyrimidin-2-amine]
0.071 µM	CCOC(=O)[C@H](CCc1ccccc1)NC(=O)c1ccc2c(N3CCN(C)CC3)nc(N)nc2c1 [Example 130, Ethyl (2S)-2-({[2-amino-4-(4-methylpiperazin-1-yl)quinazolin-7-yl]carbonyl}amino)-4-phenylbutanoate]
0.0132 µM	CN1CCN(c2cc(-c3ccc4c(c3)CN(C(=O)Nc3ccc(Cl)cc3)CC4)nc(N)n2)CC1 [Example 8, 7-[2-Amino-6-(4-methylpiperazin-1-yl)pyrimidin-4-yl]-N-(4-chlorophenyl)-3,4-dihydroisoquinoline-2(1H)-carboxamide]
0.043 µM	CCOC(=O)c1cccnc1Oc1cccc(CNC(=O)c2ccc3c(N4CCN(C)CC4)nc(N)nc3c2)c1 [Example 184, Ethyl 2-{3-[({[2-amino-4-(4-methylpiperazin-1-yl)quinazolin-7-yl]carbonyl}amino)methyl]phenoxy}nicotinate]
